Measured values published in US8710065B2, “Tricyclic inhibitors of kinases” (AbbVie Inc., priority 2011, dated 2014).

Biological target: T1, GST-tagged-Wee1 kinase (Homo sapiens, UniProt P30291)
T1 construct: purchased Carnabio (Carna Biosciences) 05-177
Experiment: Wee1 time-resolved fluorescence equilibrium binding assay (displacement of Oregon Green-labeled ATP-competitive kinase probe)
Settings: read-out: Wee-1 inhibition (Ki)
Procedure: Wee1 kinase was assayed using a time-resolved fluorescence equilibrium binding assay monitoring displacement of a rapidly reversible Oregon Green-labeled ATP-competitive kinase probe (N-(2-(2-(2-(4-(4-(5-chloro-4-(2-(1-hydroxycyclobutyl)thiazol-5-yl)-1H-pyrrolo[2,3-b]pyridin-2-yl)phenyl)piperazin-1-yl)ethoxy)ethoxy)ethyl)-2′,7′-difluoro-3′,6′-dihydroxy-3-oxo-3H-spiro[isobenzofuran-1,9′-xanthene]-5-carboxamide) by competitive Wee1 inhibitors.
Table 1 depicts enzyme inhibition data (Ki) for exemplary compounds.

T1 sequence (P30291 whole entry): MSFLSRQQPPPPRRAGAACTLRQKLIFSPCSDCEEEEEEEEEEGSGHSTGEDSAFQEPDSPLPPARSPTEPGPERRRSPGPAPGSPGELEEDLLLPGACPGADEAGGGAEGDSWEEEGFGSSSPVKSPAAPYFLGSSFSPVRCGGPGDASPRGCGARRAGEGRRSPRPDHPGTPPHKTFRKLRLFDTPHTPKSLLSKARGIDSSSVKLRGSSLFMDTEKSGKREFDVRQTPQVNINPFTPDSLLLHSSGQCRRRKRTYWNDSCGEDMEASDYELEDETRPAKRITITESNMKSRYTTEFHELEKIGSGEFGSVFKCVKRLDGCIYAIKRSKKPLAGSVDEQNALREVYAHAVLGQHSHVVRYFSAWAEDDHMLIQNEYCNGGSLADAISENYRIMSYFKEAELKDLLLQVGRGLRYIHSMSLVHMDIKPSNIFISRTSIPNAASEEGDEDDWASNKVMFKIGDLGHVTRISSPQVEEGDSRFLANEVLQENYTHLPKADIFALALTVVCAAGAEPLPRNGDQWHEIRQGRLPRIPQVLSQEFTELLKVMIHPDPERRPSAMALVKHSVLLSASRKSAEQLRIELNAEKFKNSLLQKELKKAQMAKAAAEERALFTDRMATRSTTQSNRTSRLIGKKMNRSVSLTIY

Row | Structure (SMILES) | Ki [nM]
1 | O=c1c2cnc(Nc3ccc4c(c3)CCN(CC(F)F)CC4)nc2n2ccnc2n1-c1ccccc1Cl [Example 185, 6-(2-chlorophenyl)-2-{[3-(2,2-difluoroethyl)-2,3,4,5-tetrahydro-1H-3-benzazepin-7-yl]amino}imidazo[1,2-a]pyrimido[5,4-e]pyrimidin-5(6H)-one] | < 10
2 | CC1(C)CN(CC2CCN(Cc3ccccc3)CC2)Cc2cc(Nc3ncc4c(=O)n(-c5ccccc5Cl)c5nccn5c4n3)ccc21 [Example 164, 2-({2-[(1-benzylpiperidin-4-yl)methyl]-4,4-dimethyl-1,2,3,4-tetrahydroisoquinolin-7-yl}amino)-6-(2-chlorophenyl)imidazo[1,2-a]pyrimido[5,4-e]pyrimidin-5(6H)-one] | < 10
3 | CN1Cc2cc(Nc3ncc4c(=O)n(-c5c(F)cccc5Cl)c5nccn5c4n3)ccc2C(C)(C)C1 [Example 97, 6-(2-chloro-6-fluorophenyl)-2-[(2,4,4-trimethyl-1,2,3,4-tetrahydroisoquinolin-7-yl)amino]imidazo[1,2-a]pyrimido[5,4-e]pyrimidin-5(6H)-one] | < 10
4 | O=c1c2cnc(Nc3ccc4c(c3)CC(N3CC[C@H](F)C3)C4)nc2n2ccnc2n1-c1c(Cl)cccc1Cl (stereo partly drawn) [Example 306, 6-(2,6-dichlorophenyl)-2-({2-[(3S)-3-fluoropyrrolidin-1-yl]-2,3-dihydro-1H-inden-5-yl}amino)imidazo[1,2-a]pyrimido[5,4-e]pyrimidin-5(6H)-one] | < 10
5 | NC(=O)C1CCN(c2ccc(Nc3ncc4c(=O)n(-c5ccccc5Cl)c5nccn5c4n3)cc2)CC1 [Example 235, 1-(4-{[6-(2-chlorophenyl)-5-oxo-5,6-dihydroimidazo[1,2-a]pyrimido[5,4-e]pyrimidin-2-yl]amino}phenyl)piperidine-4-carboxamide] | < 10
6 | O=c1c2cnc(Nc3ccc(-c4ccc5cccnc5n4)cc3)nc2n2ccnc2n1-c1ccccc1Cl [Example 351, 6-(2-chlorophenyl)-2-{[4-(1,8-naphthyridin-2-yl)phenyl]amino}imidazo[1,2-a]pyrimido[5,4-e]pyrimidin-5(6H)-one] | 10 to 100
7 | O=C1Nc2ccc(Nc3ncc4c(=O)n(-c5c(Cl)cccc5Cl)c5nccn5c4n3)cc2C[C@@H]2CNC[C@@H]12 [Example 179, (3aS,10aS)-8-{[6-(2,6-dichlorophenyl)-5-oxo-5,6-dihydroimidazo[1,2-a]pyrimido[5,4-e]pyrimidin-2-yl]amino}-2,3,3a,5,10,10a-hexahydropyrrolo[3,4-c][1]benzazepin-4(1H)-one] | < 10
8 | CC1(C)CN(CC(F)F)Cc2cc(Nc3ncc4c(=O)n(-c5c(F)cccc5Cl)c5nccn5c4n3)ccc21 [Example 280, 6-(2-chloro-6-fluorophenyl)-2-{[2-(2,2-difluoroethyl)-4,4-dimethyl-1,2,3,4-tetrahydroisoquinolin-7-yl]amino}imidazo[1,2-a]pyrimido[5,4-e]pyrimidin-5(6H)-one] | 10 to 100
9 | CN1CCN(c2ccc(Nc3ncc4c(=O)n(-c5ccccc5Cl)c5nccn5c4n3)cc2)CC1 [Example 1, 6-(2-chlorophenyl)-2-{[4-(4-methylpiperazin-1-yl)phenyl]amino}imidazo[1,2-a]pyrimido[5,4-e]pyrimidin-5(6H)-one] | < 10
10 | O=c1c2cnc(Nc3ccc4[nH]ncc4c3)nc2n2ccnc2n1-c1c(Cl)cccc1Cl [Example 194, 6-(2,6-dichlorophenyl)-2-(1H-indazol-5-ylamino)imidazo[1,2-a]pyrimido[5,4-e]pyrimidin-5(6H)-one] | < 10
11 | Cc1ccc(-n2c(=O)c3cnc(Nc4ccc(N5CCN(C)CC5)cc4)nc3n3ccnc23)c(Cl)c1 [Example 40, 6-(2-chloro-4-methylphenyl)-2-{[4-(4-methylpiperazin-1-yl)phenyl]amino}imidazo[1,2-a]pyrimido[5,4-e]pyrimidin-5(6H)-one] | < 10
12 | CC(=O)N1CCN(c2ccc(Nc3ncc4c(=O)n(-c5c(F)cccc5Cl)c5nccn5c4n3)cc2)CC1 [Example 158, 2-{[4-(4-acetylpiperazin-1-yl)phenyl]amino}-6-(2-chloro-6-fluorophenyl)imidazo[1,2-a]pyrimido[5,4-e]pyrimidin-5(6H)-one] | < 10
13 | COCCN1CCc2ccc(Nc3ncc4c(=O)n(-c5ccccc5Cl)c5nccn5c4n3)cc2C1 [Example 52, 6-(2-chlorophenyl)-2-{[2-(2-methoxyethyl)-1,2,3,4-tetrahydroisoquinolin-7-yl]amino}imidazo[1,2-a]pyrimido[5,4-e]pyrimidin-5(6H)-one] | < 10
14 | CN1CCc2ccc(Nc3ncc4c(=O)n(-c5ccccc5Cl)c5nccn5c4n3)cc2C1(C)C [Example 108, 6-(2-chlorophenyl)-2-[(1,1,2-trimethyl-1,2,3,4-tetrahydroisoquinolin-7-yl)amino]imidazo[1,2-a]pyrimido[5,4-e]pyrimidin-5(6H)-one] | < 10
15 | CN1Cc2cc(Nc3ncc4c(=O)n(-c5c(F)cc(F)cc5Cl)c5nccn5c4n3)ccc2C(C)(C)C1 [Example 187, 6-(2-chloro-4,6-difluorophenyl)-2-[(2,4,4-trimethyl-1,2,3,4-tetrahydroisoquinolin-7-yl)amino]imidazo[1,2-a]pyrimido[5,4-e]pyrimidin-5(6H)-one] | < 10
16 | CN1CCN(c2ccc(Nc3ncc4c(=O)n(-c5ccccc5C(F)(F)F)c5nccn5c4n3)cc2)CC1 [Example 15, 2-{[4-(4-methylpiperazin-1-yl)phenyl]amino}-6-[2-(trifluoromethyl)phenyl]imidazo[1,2-a]pyrimido[5,4-e]pyrimidin-5(6H)-one] | 10 to 100
17 | CC(=O)N1CCc2cc(Nc3ncc4c(=O)n(-c5c(Cl)cccc5Cl)c5nccn5c4n3)ccc2C1 [Example 331, 2-[(2-acetyl-1,2,3,4-tetrahydroisoquinolin-6-yl)amino]-6-(2,6-dichlorophenyl)imidazo[1,2-a]pyrimido[5,4-e]pyrimidin-5(6H)-one] | < 10
18 | COc1ccccc1-n1c(=O)c2cnc(Nc3ccc(N4CCN(C)CC4)cc3)nc2n2ccnc12 [Example 16, 6-(2-methoxyphenyl)-2-{[4-(4-methylpiperazin-1-yl)phenyl]amino}imidazo[1,2-a]pyrimido[5,4-e]pyrimidin-5(6H)-one] | 10 to 100
19 | COCCN(CCOC)c1ccc(Nc2ncc3c(=O)n(-c4ccccc4Cl)c4nccn4c3n2)cc1 [Example 183, 2-({4-[bis(2-methoxyethyl)amino]phenyl}amino)-6-(2-chlorophenyl)imidazo[1,2-a]pyrimido[5,4-e]pyrimidin-5(6H)-one] | 10 to 100
20 | CC(=O)N1CC2(CCN(c3ccc(Nc4ncc5c(=O)n(-c6c(Cl)cccc6Cl)c6nccn6c5n4)cc3)CC2)C1 [Example 298, 2-{[4-(2-acetyl-2,7-diazaspiro[3.5]non-7-yl)phenyl]amino}-6-(2,6-dichlorophenyl)imidazo[1,2-a]pyrimido[5,4-e]pyrimidin-5(6H)-one] | < 10
21 | CN1C[C@H]2CCN(c3ccc(Nc4ncc5c(=O)n(-c6c(Cl)cccc6Cl)c6nccn6c5n4)cc3)[C@H]2C1 [Example 326, 6-(2,6-dichlorophenyl)-2-({4-[(3aR,6aR)-5-methylhexahydropyrrolo[3,4-b]pyrrol-1(2H)-yl]phenyl}amino)imidazo[1,2-a]pyrimido[5,4-e]pyrimidin-5(6H)-one] | < 10
